This experiment is described as follows: biological potency assay of the purified product (MRC units). The class given is in vivo. The note with it: freeze-dried product of Example 1.

Structures are written as SMILES. Positions of bridges follow the written chain, without caps; N, C: chain ends. Residues, ends and D or L forms follow the SMILES beside them.

Compound `CC(C)C[C@H](NC(=O)[C@H](CCCCN)NC(=O)CNC(=O)[C@H](CC(C)C)NC(=O)[C@@H](NC(=O)[C@@H]1CSSC[C@H](N)C(=O)N[C@@H](CO)C(=O)N[C@@H](CC(N)=O)C(=O)N[C@@H](CC(C)C)C(=O)N[C@@H](CO)C(=O)N[C@@H]([C@@H](C)O)C(=O)N1)C(C)C)C(=O)N[C@@H](CO)C(=O)N[C@@H](CCC(N)=O)C(=O)N[C@@H](CCC(=O)O)C(=O)N[C@@H](Cc1c[nH]cn1)C(=O)N[C@@H](CCCCN)C(=O)N[C@@H](CC(C)C)C(=O)N[C@@H](CCC(N)=O)C(=O)N[C@H](C(=O)N[C@@H](Cc1ccc(O)cc1)C(=O)N1CCC[C@H]1C(=O)N[C@@H](CCCNC(=N)N)C(=O)N[C@H](C(=O)N[C@@H](CC(N)=O)C(=O)N[C@H](C(=O)NCC(=O)N[C@@H](CO)C(=O)NCC(=O)N[C@H](C(=O)N1CCC[C@H]1C(N)=O)[C@@H](C)O)[C@@H](C)O)[C@@H](C)O)[C@@H](C)O` [des Leu^16 -SCT, Des-Leu^16 -salmon calcitonin] (H-CSNLSTCVLGKLSQEHKLQTYPRTNTGSGTP-NH2; disulfide 1-7) displayed an assayed potency of 580 MRC units per mg.

The values are drawn from patent US4388235A, “Synthesis of peptides” (Armour Pharmaceutical Company, priority 1982, dated 1983).
